Assay results published in patent US10308689B2, “Dengue virus (DV) polypeptide sequences, T cell epitopes and methods and uses thereof” (LA JOLLA INSTITUTE FOR ALLERGY AND IMMUNOLOGY, priority 2010, dated 2019).

Test system: PBMC of healthy adult blood donors from Colombo, Sri Lanka
Test: Ex vivo IFNγ ELISPOT, HLA-matched PBMC of Sri Lankan blood donors
Assay type: cell-based, human
Parameters: Total Response per epitope: unit not given here
Settings: for # donors responded: number of donors responding to the epitope; for # donors responded / Total Response per epitope: restricting HLA allele and serotype as given; for Total Response per epitope: total over responding donors

Compound | # donors responded | Total Response per epitope | T cell response [SFC] (per epitope, ex vivo IFNγ SFC/10^6 PBMC) | # of responders (responding donors, HLA allele(s))
CC[C@H](C)[C@H](N)C(=O)N[C@@H](C)C(=O)N[C@H](C(=O)N[C@@H](CO)C(=O)N[C@@H](CCSC)C(=O)N[C@@H](C)C(=O)N[C@@H](CC(N)=O)C(=O)N[C@H](C(=O)N[C@@H](Cc1ccccc1)C(=O)O)[C@@H](C)CC)C(C)C | 6 | 1966.7 |  | 
CC[C@H](C)[C@H](N)C(=O)N[C@@H](C)C(=O)N[C@H](C(=O)N[C@@H](CO)C(=O)N[C@H](C(=O)N[C@@H](C)C(=O)N[C@@H](CC(N)=O)C(=O)N[C@H](C(=O)N[C@@H](Cc1ccccc1)C(=O)O)[C@@H](C)CC)[C@@H](C)O)C(C)C | 2 | 415.0 |  | 
CC[C@H](C)[C@H](N)C(=O)NCC(=O)N[C@H](C(=O)NCC(=O)N[C@H](C(=O)N[C@@H](CC(C)C)C(=O)N[C@@H](CC(C)C)C(=O)N[C@H](C(=O)N[C@@H](Cc1c[nH]c2ccccc12)C(=O)O)[C@@H](C)O)[C@@H](C)CC)[C@@H](C)CC | 1 | 525.0 |  | 
CC[C@H](C)[C@H](N)C(=O)N[C@H](C(=O)N[C@@H](CC(C)C)C(=O)N[C@@H](CCC(=O)O)C(=O)N[C@@H](Cc1ccccc1)C(=O)N[C@@H](Cc1ccccc1)C(=O)N[C@@H](CC(C)C)C(=O)N[C@@H](CCSC)C(=O)N[C@H](C(=O)O)C(C)C)[C@@H](C)CC | 1 | 143.3 |  | 
CC[C@H](C)[C@H](N)C(=O)N1CCC[C@H]1C(=O)N[C@@H](Cc1ccccc1)C(=O)N[C@@H](CCC(=O)O)C(=O)N[C@H](C(=O)N[C@@H](CCSC)C(=O)N[C@@H](CC(=O)O)C(=O)N[C@@H](CC(C)C)C(=O)N[C@@H](CCC(=O)O)C(=O)N[C@@H](CCCCN)C(=O)O)[C@@H](C)CC | 5 | 1500.0 |  | 
CC[C@H](C)[C@H](N)C(=O)N1CCC[C@H]1C(=O)N[C@@H](CCSC)C(=O)N[C@@H](C)C(=O)N[C@H](C(=O)N[C@@H](Cc1ccc(O)cc1)C(=O)NCC(=O)N[C@@H](Cc1c[nH]c2ccccc12)C(=O)N[C@@H](CC(N)=O)C(=O)N[C@@H](CC(C)C)C(=O)O)[C@@H](C)O | 2 | 456.7 |  | 
CC[C@H](C)[C@H](N)C(=O)N1CCC[C@H]1C(=O)N[C@@H](CCSC)C(=O)N[C@@H](CO)C(=O)N[C@H](C(=O)N[C@@H](Cc1ccc(O)cc1)C(=O)NCC(=O)N[C@@H](Cc1c[nH]c2ccccc12)C(=O)N[C@@H](CC(N)=O)C(=O)N[C@@H](CC(C)C)C(=O)O)[C@@H](C)O | 3 | 320.0 |  | 
CC[C@H](C)[C@H](N)C(=O)N1CCC[C@H]1C(=O)N[C@@H](CCSC)C(=O)N[C@H](C(=O)NCC(=O)N1CCC[C@H]1C(=O)N[C@@H](CC(C)C)C(=O)N[C@H](C(=O)N[C@@H](C)C(=O)NCC(=O)O)C(C)C)[C@@H](C)O | 5 | 1160.0 |  | 
CC[C@H](C)[C@H](N)C(=O)N[C@@H](CCC(N)=O)C(=O)N1CCC[C@H]1C(=O)N[C@@H](Cc1ccccc1)C(=O)N[C@@H](CC(C)C)C(=O)N[C@@H](C)C(=O)N[C@@H](CC(C)C)C(=O)NCC(=O)N[C@@H](Cc1ccccc1)C(=O)O | 1 | 85.0 |  | 
CC[C@H](C)[C@H](N)C(=O)N[C@H](C(=O)N[C@@H](CC(C)C)C(=O)N[C@@H](CC(C)C)C(=O)N[C@@H](CS)C(=O)N[C@@H](CC(C)C)C(=O)N[C@H](C(=O)N1CCC[C@H]1C(=O)N[C@H](C(=O)N[C@H](C(=O)O)C(C)C)[C@@H](C)O)[C@@H](C)CC)[C@@H](C)O | 1 | 63.3 |  | 
CC(C)C[C@H](NC(=O)[C@H](CCCNC(=N)N)NC(=O)[C@@H]1CCCN1C(=O)[C@@H](N)CCCCN)C(=O)N[C@@H](CS)C(=O)N[C@H](C(=O)N[C@@H](CCCNC(=N)N)C(=O)N[C@@H](CCC(=O)O)C(=O)N[C@@H](CCC(=O)O)C(=O)N[C@@H](Cc1ccccc1)C(=O)O)[C@@H](C)O | 1 | 350.0 | 350 | 1
